Test results reported in PubChem BioAssay (NCI).
Several values for one entry are separate records, joined by “and”; a condition that tells them apart may be missing. Identical values can stand only once.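 Interpolation was linear, between the two tested concentrations surrounding the appropriate level; five concentrations were tested over 48 hours in 96-well plates. Abbreviation: GI50, concentration required for 50% inhibition of growth. Definition used: TGI = concentration required for complete inhibition of growth.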

Tests used:
Assay in all cases: NCI tumour cell line growth inhibition, 48 h
A498 renal = system: A498 renal
M14 melanoma = system: M14 melanoma
OVCAR-4 ovarian = system: OVCAR-4 ovarian
RXF 393 renal = system: RXF 393 renal
SK-MEL-5 melanoma = system: SK-MEL-5 melanoma
SNB-19 CNS = system: SNB-19 CNS
SNB-75 CNS = system: SNB-75 CNS
TK-10 renal = system: TK-10 renal
DMS 114 small cell lung = system: DMS 114 small cell lung
KM20L2 colon = system: KM20L2 colon
M19-MEL melanoma = system: M19-MEL melanoma
SNB-78 CNS = system: SNB-78 CNS

SMILES	TGI (A498 renal)	TGI (M14 melanoma)	TGI (OVCAR-4 ovarian)	TGI (RXF 393 renal)	TGI (SK-MEL-5 melanoma)	TGI (SNB-19 CNS)	TGI (SNB-75 CNS)	TGI (TK-10 renal)	TGI (DMS 114 small cell lung)	TGI (KM20L2 colon)	TGI (M19-MEL melanoma)	GI50 (OVCAR-4 ovarian)	GI50 (RXF 393 renal)	GI50 (SK-MEL-5 melanoma)	GI50 (SNB-19 CNS)	TGI (SNB-78 CNS)	GI50 (SNB-75 CNS)	GI50 (TK-10 renal)	GI50 (A498 renal)	GI50 (M14 melanoma)
N#CCc1n[nH]c(Cc2ccccc2)n1	> 100 µM	> 100 µM	> 100 µM	> 100 µM	> 100 µM	> 100 µM	> 100 µM	> 100 µM	–	–	–	–	–	–	–	–	–	–	–	–
C[C@]12CC[C@H]3[C@@H](CC=C4C[C@@H](N5CCCC5)CC[C@@]43C)[C@@H]1C[C@H](N1CCOCC1)[C@@H]2O	> 100 µM	> 10 µM	> 100 µM	> 100 µM	> 100 µM	> 100 µM	> 100 µM	> 100 µM	–	–	–	–	–	–	–	–	–	–	–	–
COC(=O)CCC(=O)NC1=C(NCc2ccccc2)C(=O)c2ccccc2C1=O	> 100 µM	> 100 µM	49.8 µM	> 100 µM	24.9 µM	> 100 µM	> 100 µM	> 100 µM	–	–	–	–	–	–	–	–	–	–	–	–
N[C@H](C(=O)O)[C@H]1ON=C(Cl)[C@@H]1O	137 µM	> 66.9 µM	42.2 µM	> 93.8 µM and 232 µM	> 96.2 µM and 246 µM	> 550 µM	> 364 µM	–	> 422 µM	> 394 µM	> 550 µM	5.32 µM	7.92 µM	4.39 µM	40.7 µM	> 550 µM	–	–	–	–
CC(C)/C(Cl)=N\OC(=O)Nc1ccccc1F	28.3 µM	13.3 µM	31.7 µM	9.97 µM	27.9 µM	> 57.3 µM	23.1 µM	27.6 µM	–	–	–	–	–	–	–	–	–	–	–	–
[N-]=[N+]=C1N=CN=C1c1ncn[nH]1	> 100 µM	> 100 µM	> 100 µM	> 100 µM	> 100 µM	> 100 µM	> 100 µM	> 100 µM	–	–	–	–	–	–	–	–	–	–	–	–
COC(=O)[C@]1(c2cc3ccccc3n2S(=O)(=O)c2ccccc2)CC2CN(C(C)=O)C1CC2=O (stereo partly drawn)	21.4 µM	4.63 µM	10.7 µM	3.39 µM	14 µM	12.5 µM	12.3 µM	23.4 µM	–	–	–	–	–	–	–	–	–	–	–	–
Cc1cccc2c(=O)c([Se]c3coc4c(C)cccc4c3=O)coc12	41 µM	30.3 µM	35.2 µM	32.2 µM	32.7 µM	47.4 µM	31.3 µM	69.7 µM	31.7 µM	52.6 µM	30.3 µM	–	–	–	–	30.4 µM	–	–	–	–
CC(NC(=O)C(C)NC(=O)C(N)CCP(C)(=O)O)C(=O)O (stereo not drawn)	> 100 µM	–	> 100 µM	> 100 µM	> 100 µM	> 100 µM	> 100 µM	–	–	> 100 µM	> 100 µM	–	–	–	–	> 100 µM	–	–	–	–
CC(=O)OC(/C=C/c1ccccc1)P1(=O)N(CC(C)(C)C)[C@@H]2CCCC[C@H]2N1CC(C)(C)C (stereo partly drawn)	21.8 µM	17.5 µM and 18.9 µM	20.5 µM and 19.7 µM	22 µM and 14.5 µM	17.4 µM and 18.7 µM	23.5 µM and 24.2 µM	12.8 µM and 4.17 µM	22.4 µM and 16.6 µM	–	–	–	–	–	–	–	–	3.91 µM and 0.684 µM	10.1 µM and 4.82 µM	–	–
N/C(=N\S(=O)(=O)c1ccc(S(=O)(=O)c2ccccc2)s1)Nc1ccc(Cl)cc1	34.7 µM	37.3 µM	94.8 µM	> 100 µM	32.5 µM	> 100 µM	> 100 µM	51.1 µM	–	–	–	–	–	–	–	–	–	–	–	–
CC(=O)OCCCOCn1c(Cc2ccccc2)c(C)c(=O)[nH]c1=O	> 100 µM	> 100 µM	> 100 µM	> 100 µM	> 100 µM	> 100 µM	> 100 µM	> 100 µM	–	–	–	–	–	–	–	–	–	–	–	–
CC(=O)[C@@]1(C)CC2(CCN(C)CC2)OC1C (stereo partly drawn)	> 100 µM	> 100 µM	> 100 µM	> 100 µM	> 100 µM	> 100 µM	> 100 µM	> 100 µM	–	–	–	–	–	–	–	–	–	–	–	–
Nc1nc(SCc2ccc([N+](=O)[O-])cc2)nc2c1ncn2C1OC(COP(=O)(O)O)C(O)C1O (stereo not drawn)	> 100 µM	> 100 µM	> 100 µM	> 100 µM	> 100 µM	> 100 µM	> 100 µM	> 100 µM	> 100 µM	> 100 µM	–	–	–	–	–	> 100 µM	–	–	–	–
COC(=O)C1C/C(=C/N(C)C)C(=S)N1 (stereo not drawn)	> 100 µM	> 100 µM	> 100 µM	> 100 µM	> 100 µM	> 100 µM	> 100 µM	> 100 µM	–	–	–	–	–	–	–	–	–	–	–	–
Cc1c(Cl)c2ccccc2n1S(=O)(=O)c1ccccc1	–	> 100 µM	> 100 µM	–	> 100 µM	> 100 µM	58 µM	> 100 µM	> 100 µM	> 100 µM	–	–	–	–	–	–	–	–	–	–
CC1(C)N=C(C(N)=O)c2ncn(N)c2N1	> 100 µM	> 100 µM	> 100 µM	> 100 µM	> 100 µM	> 100 µM	> 100 µM	> 100 µM	–	–	–	–	–	–	–	–	–	–	–	–
COC(=O)CCC(=O)NC1=C(Nc2ccc(OC)cc2)C(=O)c2ccccc2C1=O	33.6 µM	19.7 µM	24.7 µM	67 µM	3.57 µM	37.7 µM	21.2 µM	85.3 µM	–	–	–	–	–	–	–	–	–	–	–	–
S=C(NC1=NCC(CN2CCN(c3ccccc3)CC2)O1)Nc1ccccc1 (stereo not drawn)	> 100 µM	> 100 µM	> 100 µM	> 100 µM	> 100 µM	> 100 µM	> 100 µM	> 100 µM	–	–	–	–	–	–	–	–	–	–	–	–
CCOC(=O)c1ccc(Nc2c3c(nc4ccccc24)CCCC3)cc1	> 92.2 µM	> 100 µM	> 100 µM	> 100 µM	> 100 µM	> 100 µM	> 54.8 µM	> 100 µM	–	–	–	–	–	–	–	–	–	–	–	–
O=C(Nc1cccc(-n2ccc3c(NC(=O)c4ccccc4)nccc32)c1)Nc1cc(C(F)(F)F)cc(C(F)(F)F)c1	> 50 µM	2.56 µM	> 50 µM	3.17 µM	1.95 µM	> 50 µM	3.89 µM	32.5 µM	–	–	–	1.93 µM	1.16 µM	0.946 µM	2.32 µM	–	1.09 µM	1.83 µM	1.53 µM	1.11 µM
